Paper PMC5983544, “Muscarinic M5 receptors modulate ethanol seeking in rats” (Neuropsychopharmacology, 2018)

Columns and labels:
[1] = tested on: ethanol-preferring (iP) rats; assay: Ethanol self-administration after bilateral microinjection into dorsolateral (DL) striatum; format: in vivo, rat; details: intra-DL striatum
Excerpt: (§1) Male iP rats (n = 14) were trained to self-administer 10% (v/v) ethanol via lever presses under FR3 operant conditions for approximately 12 weeks, in the presence of a 1-s light conditioned stimulus (CS+) occurring when the ethanol solution was delivered and an olfactory cue (S+ cue; one drop of vanilla essence, placed directly below the ethanol-paired (active) lever), as previously described, followed by surgery and testing. […] Rats were then given 7 days of ethanol self-administration before receiving the alternate treatment in a counterbalanced manner. For full details refer to Supplementary material.
(§2) Microinjections were performed as previously described; for full details see Supplementary material.

[2] = tested on: ethanol-preferring (iP) rats; assay: Ethanol self-administration after bilateral microinjection into dorsomedial (DM) striatum; format: in vivo, rat; details: intra-DM striatum
Excerpt: as §1, §2
There was a main effect of lever (F(1, 15) = 59.4, P < 0.0001) but no effect of treatment (F(1, 15) = 0.22, P = 0.65) (Fig. 5b).

Structure (SMILES) | responding for ethanol vs vehicle ([1]; 165 pmol/hemisphere, P = 0.82) | responding for ethanol vs vehicle ([2]; 165 pmol/hemisphere, P = 0.99) | ethanol responding vs vehicle ([1]; 5.53 nmol/side, P = 0.0003) | responding for water vs vehicle ([1]; 5.53 nmol/side, P = 0.96) | ethanol responding vs vehicle ([2]; 5.53 nmol/hemisphere)
CCN(Cc1ccccc1C(F)(F)F)C(=O)C1CCN(S(=O)(=O)c2ccc3[nH]ncc3c2)CC1 [ML380, 1-((1H-indazol-5-yl)sulfoneyl)-N-ethyl-N-(2-(trifluoromethyl)benzyl)piperidine-4-carboxamide] | no effect | no effect |  |  | 
c1cnc2cc3c(cc2n1)[C@@H]1CNC[C@H]3C1 [varenicline] |  |  | significantly reduced ethanol responding | no difference | did not affect ethanol responding
